The values below come from PubChem BioAssay AID248 (DTP/NCI, 2004).

Several values for one entry are separate records, joined by “and”; a condition that tells them apart may be missing. Identical values can stand only once. Toxic doses and inconclusive results are not listed.

The subject of the experiment is L1210 leukemia ip in BDF1 mice, survival T/C. Kind of experiment: NCI In Vivo Anticancer Drug Screen. Data for tumor model L1210 Leukemia (intraperitoneal) in B6D2F1 (BDF1) mice. To be noted: endpoint: mean survival time, higher = longer survival. An outline of the steps:
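Mice bearing the transplanted tumor received compound or vehicle. Survival of the treated group was divided by that of the vehicle-treated control group to give the ratio.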

Setting [1] is: dose: 100.0 mg/kg/injection, schedule: Q04DX003 (ip), vehicle: acetone.
Where [2] appears, read: dose: 200.0 mg/kg/injection, schedule: Q04DX003 (ip), vehicle: acetone.
Where [3] appears, read: dose: 400.0 mg/kg/injection, schedule: Q04DX003 (ip), vehicle: acetone.
The mark [4] stands for this setting: dose: 100.0 mg/kg/injection, schedule: Q04DX003 (ip), vehicle: saline with Tween-80.
The mark [5] stands for this setting: dose: 200.0 mg/kg/injection, schedule: Q04DX003 (ip), vehicle: saline with Tween-80.
Where [6] appears, read: dose: 50.0 mg/kg/injection, schedule: Q01DX001 (ip), vehicle: carboxymethylcellulose (CMC).
[7] abbreviates: dose: 100.0 mg/kg/injection, schedule: Q01DX001 (ip), vehicle: carboxymethylcellulose (CMC).
[8] abbreviates: dose: 75.0 mg/kg/injection, schedule: Q01DX001 (ip), vehicle: saline.
Where [9] appears, read: dose: 150.0 mg/kg/injection, schedule: Q01DX001 (ip), vehicle: saline.
[10] abbreviates: dose: 300.0 mg/kg/injection, schedule: Q01DX001 (ip), vehicle: saline.
[11] abbreviates: dose: 100.0 mg/kg/injection, schedule: Q01DX009 (ip), vehicle: saline with Tween-80.
Where [12] appears, read: dose: 200.0 mg/kg/injection, schedule: Q01DX009 (ip), vehicle: saline with Tween-80.
The mark [13] stands for this setting: dose: 100.0 mg/kg/injection, schedule: Q01DX001 (ip), vehicle: saline.
[14] abbreviates: dose: 200.0 mg/kg/injection, schedule: Q01DX001 (ip), vehicle: saline.
Where [15] appears, read: dose: 100.0 mg/kg/injection, schedule: Q01DX009 (ip), vehicle: Klucel (hydroxypropylcellulose) (HPC).
[16] abbreviates: dose: 200.0 mg/kg/injection, schedule: Q01DX009 (ip), vehicle: Klucel (hydroxypropylcellulose) (HPC).
Setting [17] is: dose: 400.0 mg/kg/injection, schedule: Q01DX009 (ip), vehicle: Klucel (hydroxypropylcellulose) (HPC).
[18] abbreviates: dose: 100.0 mg/kg/injection, schedule: Q01DX001 (ip), vehicle: Klucel (hydroxypropylcellulose) (HPC).
The mark [19] stands for this setting: dose: 200.0 mg/kg/injection, schedule: Q01DX001 (ip), vehicle: Klucel (hydroxypropylcellulose) (HPC).
Where [20] appears, read: dose: 400.0 mg/kg/injection, schedule: Q01DX001 (ip), vehicle: Klucel (hydroxypropylcellulose) (HPC).
The mark [21] stands for this setting: dose: 200.0 mg/kg/injection, schedule: Q01DX001 (ip), vehicle: carboxymethylcellulose (CMC).
Setting [22] is: dose: 400.0 mg/kg/injection, schedule: Q01DX001 (ip), vehicle: carboxymethylcellulose (CMC).
[23] abbreviates: dose: 400.0 mg/kg/injection, schedule: Q04DX003 (ip), vehicle: saline with Tween-80.

As for `CC(=O)C(c1ccccc1)N(C)C(=O)c1ccccc1` (stereo not drawn), the T/C under setting [1] was 93 % of control, the T/C under setting [2] is 86 % of control and the T/C under setting [3] is 89 % of control.

On to `CCc1cccc(CC)c1NC(=O)CS`, for which the T/C reads like this: under setting [4], 94 % of control; under setting [5], 95 % of control.

As to `O=[N+]([O-])c1ccc(N/N=C/C(Br)(Br)Br)c([N+](=O)[O-])c1`, the T/C reads like this: under setting [6], 99 % of control; under setting [7], 94 % of control.

Consider `NN(C(=O)c1ccc([N+](=O)[O-])cc1)c1ccccc1`, for which the T/C is, setting by setting: under setting [8], 95 % of control; under setting [9], 93 % of control; under setting [10], 90 % of control.

With `O=Cc1cc2ccccc2cc1O`, the T/C (dose: 50.0 mg/kg/injection, schedule: Q01DX009 (ip), vehicle: saline with Tween-80) is 91 % of control; the T/C under setting [11] is 94 % of control; the T/C under setting [12] is 97 % of control.

As for `COc1cc2c(cc1OC)C13CCN4CC5=CCOC6CC(=O)N2C1C6C5CC43O` (stereo not drawn), the T/C is, setting by setting: under setting [13], 89 % of control; under setting [14], 86 % of control; (dose: 400.0 mg/kg/injection, schedule: Q01DX001 (ip), vehicle: saline) 89 % of control.

As to `COc1ccc(C)cc1CN1NC(=O)CC1=N`, the T/C is 97 % of control under setting [15]; 106 % of control (dose: 100.0 mg/kg/injection, schedule: Q04DX003 (ip), vehicle: Klucel (hydroxypropylcellulose) (HPC)); 101 % of control under setting [16]; 110 % of control (dose: 200.0 mg/kg/injection, schedule: Q04DX003 (ip), vehicle: Klucel (hydroxypropylcellulose) (HPC)); 98 % of control under setting [17]; 102 % of control (dose: 400.0 mg/kg/injection, schedule: Q04DX003 (ip), vehicle: Klucel (hydroxypropylcellulose) (HPC)).

With `CCOc1ccc(-n2c(O)c(N=Nc3ccc(Cl)cc3)c(=O)n(-c3ccc(OC)cc3)c2=S)cc1`, the T/C is, setting by setting: under setting [18], 96 % of control; under setting [19], 98 % of control; under setting [20], 96 % of control.

With `O=C(O)c1ccc(N=C=S)cc1O`, the T/C was 97 % of control under setting [18], 107 % of control under setting [19] and 97 % of control under setting [20].

Regarding `C/C(=C\C(=O)O)CC(=O)O`, the T/C was 88 % of control (dose: 25.0 mg/kg/injection, schedule: Q01DX009 (ip), vehicle: water); 95 % of control and 105 % of control (dose: 25.0 mg/kg/injection, schedule: Q04DX003 (ip), vehicle: water); 104 % of control and 89 % of control (dose: 50.0 mg/kg/injection, schedule: Q04DX003 (ip), vehicle: water); 88 % of control (dose: 100.0 mg/kg/injection, schedule: Q01DX009 (ip), vehicle: water); 101 % of control and 102 % of control (dose: 100.0 mg/kg/injection, schedule: Q04DX003 (ip), vehicle: water); 93 % of control (dose: 200.0 mg/kg/injection, schedule: Q04DX003 (ip), vehicle: water).

On to `O=C1C=C(O)c2cc(Br)ccc2C1=O.[Ag]`, for which the T/C (dose: 100.0 mg/kg/injection, schedule: Q04DX002 (ip), vehicle: saline) was 105 % of control.

For `CCCCCCCCCCC/C=N/NC(=O)c1ccc[n+](C)c1`, the T/C is, setting by setting: (dose: 50.0 mg/kg/injection, schedule: Q01DX009 (ip), vehicle: saline) 108 % of control; (dose: 100.0 mg/kg/injection, schedule: Q01DX009 (ip), vehicle: saline) 108 % of control; (dose: 200.0 mg/kg/injection, schedule: Q01DX009 (ip), vehicle: saline) 110 % of control.

Take `Cc1ccc(S(=O)(=O)OCC2OC(n3ccc(=O)[nH]c3=O)C3OC(C)(C)OC23)cc1` (stereo not drawn): where the note is “dose: 100.0 mg/kg/injection, schedule: Q01DX005 (ip), vehicle: saline”, the T/C was 122 % of control.

Take `CC1(C)OCC(C(OC(=O)c2ccc([N+](=O)[O-])cc2)C(OC(=O)c2ccc([N+](=O)[O-])cc2)C2COC(C)(C)O2)O1` (stereo not drawn): the T/C by setting is: under setting [18], 103 % of control; under setting [19], 100 % of control; under setting [20], 100 % of control.

Turning to `O=C(CC1C(=O)Nc2ccccc21)c1ccccc1` (stereo not drawn), the T/C is, setting by setting: (dose: 100.0 mg/kg/injection, schedule: Q04DX002 (ip), vehicle: Klucel (hydroxypropylcellulose) (HPC)) 91 % of control; (dose: 200.0 mg/kg/injection, schedule: Q04DX002 (ip), vehicle: Klucel (hydroxypropylcellulose) (HPC)) 105 % of control; (dose: 400.0 mg/kg/injection, schedule: Q04DX002 (ip), vehicle: Klucel (hydroxypropylcellulose) (HPC)) 91 % of control.

With `Nc1cc2c(cc1[N+](=O)[O-])-c1ccccc1/C2=N\O`, the T/C was 91 % of control under setting [7], 100 % of control under setting [21] and 88 % of control under setting [22].

Regarding `C1=C(c2ccccc2)c2ccccc2CC1`, the T/C was 96 % of control (dose: 50.0 mg/kg/injection, schedule: Q01DX001 (ip), vehicle: saline); 102 % of control under setting [13]; 106 % of control under setting [14].

As for `C(=N\Nc1ccccc1)/C(=N\Nc1ccccc1)c1ccccc1`, the T/C under setting [4] is 103 % of control, the T/C under setting [5] was 97 % of control and the T/C under setting [23] is 98 % of control.

Turning to `CCCCCCCCN(CCCCCCCC)C(C)C(=O)c1ccc2cc(Br)c3ccccc3c2c1` (stereo not drawn), the T/C is, setting by setting: under setting [1], 96 % of control; under setting [2], 107 % of control; under setting [3], 103 % of control.

In the case of `Cn1nc(N)c2ncc(-c3ccc(Cl)cc3)nc21`, the T/C is 93 % of control under setting [11]; 96 % of control under setting [12]; 87 % of control (dose: 400.0 mg/kg/injection, schedule: Q01DX009 (ip), vehicle: saline with Tween-80).

For `O=C(NCCCCCCNC(=O)N(O)C12CC3CC(CC(C3)C1)C2)N(O)C12CC3CC(CC(C3)C1)C2`, the T/C reads like this: under setting [18], 95 % of control; under setting [19], 90 % of control; under setting [20], 90 % of control.

In the case of `C=C(C)CSC(=S)NNc1ccccc1`, the T/C is 93 % of control (dose: 150.0 mg/kg/injection, schedule: Q01DX009 (ip), vehicle: saline with Tween-80) and 86 % of control (dose: 225.0 mg/kg/injection, schedule: Q01DX009 (ip), vehicle: saline with Tween-80).

In the case of `O=[N+]([O-])c1ccc(N2CCN(c3cccc(C(F)(F)F)c3)CC2)c([N+](=O)[O-])c1`, the T/C under setting [4] was 105 % of control, the T/C under setting [5] was 102 % of control and the T/C under setting [23] is 100 % of control.

Regarding `Oc1ccccc1OCCOCCOc1ccccc1O`, where the note is “dose: 100.0 mg/kg/injection, schedule: Q04DX002 (ip), vehicle: other”, the T/C was 90 % of control.

As for `C=CC(=O)NCCN(C)C`, the T/C is, setting by setting: under setting [8], 104 % of control; under setting [9], 93 % of control; under setting [10], 104 % of control.

On to `c1ccc2c(c1)Nc1cc3ccccc3cc1O2`, for which the T/C is, setting by setting: under setting [6], 101 % of control; under setting [7], 92 % of control; under setting [21], 97 % of control; under setting [22], 90 % of control.

`O=c1oc2ccccc2c(O)c1Cc1c(O)c2ccccc2oc1=O`: the T/C runs as follows: (dose: 12.5 mg/kg/injection, schedule: Q01DX009 (ip), vehicle: Klucel (hydroxypropylcellulose) (HPC)) 99 % of control; (dose: 25.0 mg/kg/injection, schedule: Q01DX009 (ip), vehicle: Klucel (hydroxypropylcellulose) (HPC)) 86 % of control; (dose: 50.0 mg/kg/injection, schedule: Q01DX009 (ip), vehicle: Klucel (hydroxypropylcellulose) (HPC)) 86 % of control and 92 % of control.

As for `CCOc1cc(/C=N/NC(=O)c2ccccc2NC(=O)c2ccccc2Cl)ccc1O`, the T/C runs as follows: under setting [15], 90 % of control; under setting [16], 95 % of control; under setting [17], 92 % of control.

Take `COC(=O)c1ccccc1OC(=S)N(C)C`: the T/C is 113 % of control under setting [4], 103 % of control under setting [5] and 114 % of control under setting [23].

`CN1CCC2(CC1)C(C#N)C(=O)NC(=O)C2C#N` (stereo not drawn): the T/C is, setting by setting: under setting [7], 92 % of control; under setting [21], 101 % of control; under setting [22], 95 % of control.
